Measured values published in paper PMC9530166, “Allosteric regulation of glycogen breakdown by the second messenger cyclic di-GMP” (Nature Communications, 2022).
“Also recorded” adds a separate entry of the source.

Columns and labels:
His6-GlgXDETR(49-52) = assay: nanoDSF thermal shift assay, RETD49-52 swap mutant; format: binding, Streptomyces venezuelae; conditions: His6-GlgXDETR(49-52) mutant
Procedure: Arginine and aspartic acid arranged in an RxxD motif are often found as c-di-GMP binding signatures in effector proteins[28],[34]. […] To determine if either of these motifs are involved in c-di-GMP binding, we swapped the arginine and aspartic acid residues in the two motifs and purified His6-GlgXDETR(49-52) and His6-GlgXDLVR(212-215).
For label-free thermal shift assay experiments, 10 μM purified protein in 25 mM Tris pH 8, 150 mM NaCl, 2.5% (v/v) glycerol, and 5 mM MgCl2 was incubated without or with (1 mM) of nonlabeled c-di-GMP or c-di-AMP, respectively, at rt for 10 min. Reactions were subsequently analyzed in a Tycho NT.6 (NanoTemper Technologies) device with a 30 K/min thermal ramp and the internal fluorescence at 330 and 350 nm was recorded. Data analysis and calculation of derivatives was done using the internal evaluation features of the Tycho instrument.
217 Supplementary Fig. 5: NanoDSF assays with mutagenized His6-GlgX variants. (a) Swap of the
219 This was confirmed by DRaCALA, right. For DRaCALA assays, 15 µg of purified E. coli His6-GlgX
220 or His6-Vnz25270, respectively, were mixed with 0.5 µl of [32P]-c-di-GMP (Hartmann Analytic
221 GmbH, Braunschweig) in binding buffer (25 mM Tris pH 8.0, 150 mM NaCl, 2.5% (v/v) glycerol
222 and 5 mM MgCl2). […]
223 air dried for 10 min and analyzed by phosphorimaging. […]

His6-Vnz25270 = assay: BCA reducing-end enzyme assay, Vnz25270; format: biochemical, Streptomyces venezuelae; conditions: 50 µM c-di-GMP, 0.05% glycogen from rabbit, 1 µM enzyme
Procedure: Fig. 2 c-di-GMP stimulates glycogen breakdown activity of GlgX in vitro. a Bicinchoninic acid (BCA) in vitro enzyme assay. The purple copper bicinchoninate complex indicating GlgX-mediated generation of reducing ends in glycogen was quantified by photometric measurements at 562 nm. A562 values were converted into reducing ends [µM glucose equivalents] based on D-glucose as a standard. Reactions contained 0.05% (w/v) glycogen from rabbit, 1 µM GlgX and increasing concentrations of c-di-GMP (0–100 µM). Source data are provided as a Source data file. b BCA assay containing 0.05% of either glycogen from rabbit, pullulan, amylopectin from maize or amylose from potato as substrates. Where appropriate, 1 µM GlgX or 50 µM c-di-GMP were added to the reaction samples. Source data are provided as a Source data file. c BCA assay as in a with or without c-di-GMP (50 µM), 0.05% glycogen from rabbit (S) and 1 µM Vnz25270, GlgX, the active site mutants GlgXD342A, GlgXE378A, GlgXD342A+E378A, or the c-di-GMP-binding mutant variant GlgXDETR49-52 as indicated. […]
Hydrolysis of carbohydrates was assessed in vitro by measuring the accumulation of reducing sugar ends using the BCA assay[42] and D-glucose as a standard for calibration (Supplementary Fig. 11). […] 125 μl sample aliquots were transferred in duplicates to a 96 well plate and the absorbance at 562 nm was measured using a plate reader.

His6-GlgXEC = target: T1, His6-GlgXEC (Escherichia coli, UniProt P15067); assay: DRaCALA with [32P]-c-di-GMP, E. coli GlgX; format: binding; conditions: 15 µg E. coli His6-GlgX
T1 construct: made in house; host or cells: E. coli Rosetta (DE3), pET15b
Procedure: For DRaCALA assays, purified His6-GlgX (15 μg) was mixed with 0.5 μl undiluted [^32P]-c-di-GMP (42 nM) (Hartmann Analytic GmbH, Braunschweig) in binding buffer (25 mM Tris pH 8; 150 mM NaCl; 2.5% (v/v) glycerol; 5 mM MgCl2) and the reaction was incubated at rt for 5 min. For competition assays, 100 μM nonlabeled nucleotides were added to the samples and incubated at rt for 5 min prior to the addition of [^32P]-c-di-GMP. Reactions (10 μl) were spotted on the same nitrocellulose membrane (Roth), air dried for 10 min and analyzed via phosphorimaging.
(a) 15 µg of purified E. coli His6-GlgX
167 or His6-Vnz25270, respectively, were mixed with 0.5 µl of [32P]-c-di-GMP (Hartmann Analytic
168 GmbH, Braunschweig) in binding buffer (25 mM Tris pH 8.0, 150 mM NaCl, 2.5% (v/v) glycerol
169 and 5 mM MgCl2). 10 µL of the reactions were spotted on the same nitrocellulose membrane (Roth),
170 air dried for 10 min and analyzed by phosphorimaging. (b, c) 10 µM purified His6-Vnz25270 (b) or
171 His6-GlgXE.coli (c) in 25 mM Tris pH 8.0, 150 mM NaCl, 2.5% (v/v) glycerol and 5 mM MgCl2 were
172 incubated without or with (1 mM) c-di-GMP. Reactions were analyzed in a Tycho NT.6
173 (NanoTemper Technologies) device.
(1 picture or pasted object on this page, not shown here)

BldD = target: BldD; parameters: method as in PMID 25171413, PMID 31810759; conditions: cited from earlier work

T1 sequence (P15067 whole entry): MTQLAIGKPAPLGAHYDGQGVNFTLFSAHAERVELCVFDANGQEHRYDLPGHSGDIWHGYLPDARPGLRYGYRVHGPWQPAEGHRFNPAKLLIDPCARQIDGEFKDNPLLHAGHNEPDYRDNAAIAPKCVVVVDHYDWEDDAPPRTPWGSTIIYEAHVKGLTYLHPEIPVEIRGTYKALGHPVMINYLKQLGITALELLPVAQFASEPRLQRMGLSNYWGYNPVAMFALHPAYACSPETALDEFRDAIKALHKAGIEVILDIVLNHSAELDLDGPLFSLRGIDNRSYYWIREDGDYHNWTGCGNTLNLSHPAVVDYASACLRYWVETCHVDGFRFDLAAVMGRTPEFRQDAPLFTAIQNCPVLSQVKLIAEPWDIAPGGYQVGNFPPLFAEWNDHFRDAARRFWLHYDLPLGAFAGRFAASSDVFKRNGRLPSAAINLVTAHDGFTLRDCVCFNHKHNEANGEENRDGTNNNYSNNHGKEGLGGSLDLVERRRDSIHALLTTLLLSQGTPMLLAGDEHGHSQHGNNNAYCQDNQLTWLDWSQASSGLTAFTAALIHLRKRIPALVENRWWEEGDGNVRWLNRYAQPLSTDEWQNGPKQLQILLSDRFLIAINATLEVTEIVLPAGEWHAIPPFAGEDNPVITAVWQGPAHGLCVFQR

## Nc1nc2c(ncn2[C@@H]2O[C@@H]3CO[P@](=O)(O)O[C@H]4[C@@H](O)[C@H](n5cnc6c(=O)[nH]c(N)nc65)O[C@@H]4CO[P@](=O)(O)O[C@H]3[C@H]2O)c(=O)[nH]1 [c-di-GMP, bis-(3′−5′)-cyclic diguanosine monophosphate]
His6-GlgXDETR(49-52)
  effect of c-di-GMP in nanoDSF: abolishes c-di-GMP binding; also recorded: no effect
His6-Vnz25270
  effect of c-di-GMP on hydrolytic activity: remained at basal levels
His6-GlgXEC
  binding of [32P]-c-di-GMP in DRaCALA: did not detect any interactions
BldD
  Kd: 2500 ± 600 nM
